Results as given in PMC6368574, “Probing the Inhibition of Microtubule Affinity Regulating Kinase 4 by N-Substituted Acridones” (Scientific Reports, 2019).
Read-outs that look alike come from different tables or passages of the source.

Legend:
MCF-7 cells = assay: MTT cell viability assay, MCF-7; type: cell-based; settings: Homo sapiens, MCF7; Table S2; MTT; read-out: IC50 (µM) MCF-7
Protocol: (§1) Initially, all synthesized acridone derivatives were evaluated for their cytotoxicity potential on MCF-7, HepG2 and HEK293 cell lines by MTT assay. These synthesized acridone derivatives were screened in the concentration range of 0–200 µM, for 24 and 48 h. […] It was also interesting that in the studied […] concentration range these compounds don’t show considerable cytotoxicity towards HEK293 cell lines. […] Thus, compounds 5, 7b, 7d, 7f and 7h were taken for further cell based studies such as apoptosis and reactive oxygen species (ROS) production.
(§2) To study the effect of synthesized acridone derivatives on cell viability and proliferation, a standard MTT method was carried out. Cells were plated (8000–9000/well) in a 96-well plate and incubated overnight. On the next day, cells were treated with increasing concentrations (0.1–80 μM) of synthesized acridone derivatives in a final volume of 200 µl for 48 h at 37 °C in a humidified chamber. At the end of treatment time point, 20 µl of MTT solution (from 5 mg/ml stock solution in phosphate buffer saline, pH 7.4) was added to each well and incubated further for 4–5 h at 37 °C in the CO2 incubator. After stipulated time the supernatant was aspirated and the colored formazan crystal produced as a result of MTT reduction was dissolved in 100 µl of DMSO. The absorbance (A) of colored product was then measured at 570 nm on a multiplate ELISA reader (BioRad). The percentage of viable cells was calculated and used to estimate the IC50 (50% inhibitory concentration) values for each acridone derivative. For cell proliferation studies paclitaxel has been taken as positive control.

HepG2 cells = assay: MTT cell viability assay, HepG2; type: cell-based; settings: Homo sapiens, Table S2
Protocol: as §1, §2

recombinant MARK4 [1] = biological target: T1, recombinant MARK4 (Homo sapiens, UniProt Q96L34); assay: Fluorescence binding (quenching, modified Stern-Volmer); settings: Table S3; fluorescence binding; read-out: Binding affinity (Ka) (converted)
T1 construct: made in house; host or cells: bacterial cells (Luria-Bertani broth, IPTG induction)
T1 sequence (Q96L34 1-752): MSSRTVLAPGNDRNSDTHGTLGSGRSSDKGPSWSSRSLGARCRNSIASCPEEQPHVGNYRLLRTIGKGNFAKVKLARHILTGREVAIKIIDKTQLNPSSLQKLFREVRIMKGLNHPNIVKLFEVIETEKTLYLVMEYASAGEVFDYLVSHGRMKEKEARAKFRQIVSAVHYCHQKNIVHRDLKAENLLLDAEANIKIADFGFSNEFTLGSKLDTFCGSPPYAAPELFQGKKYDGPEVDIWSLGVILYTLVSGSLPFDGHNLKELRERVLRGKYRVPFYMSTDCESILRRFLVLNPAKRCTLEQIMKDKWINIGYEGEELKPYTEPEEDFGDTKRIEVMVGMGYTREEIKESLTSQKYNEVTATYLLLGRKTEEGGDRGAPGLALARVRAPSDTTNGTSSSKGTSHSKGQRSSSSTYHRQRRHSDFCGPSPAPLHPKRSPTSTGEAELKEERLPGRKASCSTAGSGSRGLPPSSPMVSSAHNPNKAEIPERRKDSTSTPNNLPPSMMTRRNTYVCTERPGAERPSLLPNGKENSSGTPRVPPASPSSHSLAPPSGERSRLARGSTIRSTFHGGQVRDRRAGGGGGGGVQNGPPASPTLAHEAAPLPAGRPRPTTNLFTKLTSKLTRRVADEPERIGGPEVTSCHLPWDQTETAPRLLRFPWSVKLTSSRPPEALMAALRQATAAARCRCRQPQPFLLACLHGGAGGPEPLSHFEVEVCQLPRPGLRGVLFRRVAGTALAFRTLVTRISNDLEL
Protocol: To determine the binding affinities of the synthesized acridones with MARK4, we used fluorescence emission spectra measurements. Protein sample was excited at 280 nm and emission was measured in 300–400 nm range with increasing concentrations of each acridone derivative (0–100 µM). A significant decrease in fluorescence intensity of MARK4 with increasing concentrations of each compound was fitted in the modified Stern-Volmer equation to calculate the binding constant, Ka and the number of binding sites per protein molecule (n). All the synthesized acridones have been screened (Supplementary Fig. S6, S7 and Table S3) and those with the highest affinity have been selected (compounds 5, 7b, 7d, 7f and 7h) for further evaluation (Fig. 3). The binding constants of compound 5, 7b, 7d, 7f and 7h were estimated as 6.3 × 10^4 M^−1, 1.0 × 10^6 M^−1, 1.0 × 10^6 M^−1, 1.9 × 10^6 M^−1, and 3.1 × 10^5 M^−1, respectively (Fig. 3).
Figure 3 Fluorescence binding studies of compound 5, 7b, 7d, 7f and 7h with MARK4. (A) Fluorescence emission spectra of MARK4 (10 µM) with increasing concentrations of the respective compound (5, 7b, 7d, 7f and 7h). Excitation wavelength was fixed at 280 nm and emission was recorded in 300–400 nm range. (B) Modified Stern-Volmer plot obtained from fluorescence quenching of MARK4 by compound 5, 7b, 7d, 7f and 7h, respectively. It was used to calculate binding affinity (Ka) and number of binding sites (n).
Binding affinities of synthesized acridone derivatives with recombinant MARK4 was carried out by observing the fluorescence intensity change of emission spectrum of MARK4 by following our previously published protocol[44],[45]. Each titration of protein was performed in triplicates and the average was taken for analysis. A significant decreased in fluorescence intensity of protein with increase in the concentration of acridone derivatives were used as the criteria for deducing the binding constant (Ka) as well as number of binding sites (n) present on the protein molecule using the modified Stern-Volmer equation[46]:1 log(Fo−F)/F=logKa+nlog[L] where, Fo = Fluorescence intensity of native protein, F = Fluorescence intensity of protein in the presence of ligand, Ka = Binding constant, n = number of binding sites, L = concentration of ligand. The values for Ka and n were derived from the intercept and slope, respectively.

HEK293 cells = assay: MTT cell viability assay, HEK293; type: cell-based; settings: Homo sapiens, Table S2
Protocol: as §1, §2

recombinant MARK4 [2] = biological target: T1, recombinant MARK4; assay: ATPase enzyme inhibition assay (Malachite Green); type: biochemical
Protocol: To evaluate the inhibition activity of synthesized acridone derivatives against recombinant MARK4, ATPase enzyme inhibition assay was performed (Table S3). […] Our studies were initiated by replacing the ester group of 5 with sterically and electronically diverse amines affording the corresponding amides 7a–j, in order to establish favorable interactions with residues Ala135, Val70, Asp196 and/or Glu182. […] In this case, the docking studies indicate a better fit of 7h compared with 7g in the active site of MARK4 with a binding energy of −9.5 kcal/mol and a stronger predicted hydrogen bond with Ala135 (3.06 Å for 7h, 3.19 Å for 7g).
Enzyme activity of MARK4 was evaluated with the help of standard Malachite Green (Biomol Green reagent, Enzo Life Sciences) microtitre-plate assay as described earlier. Estimated amount of MARK4 (200 ng) and 20 µM ATP as a substrate were incubated for 10–15 min at 25 °C with increasing concentrations (0–20 µM) of synthesized acridone derivatives, in 20 mM Tris buffer, pH 8.0. Reaction was terminated by the adding 100 µl of Biomol Green reagent and absorbance of final reaction products was recorded at 620 nm in a multiplate ELSIA reader (BioRad). In order to quantify the hydrolyzed phosphate, inorganic phosphate standard curve were prepared from the phosphate standard solutions as supplied by the manufacturer (Biomol Green reagent, Enzo Life Sciences). All data points represent triplicate measurements from at least three independent experiments.

MARK2 = tested on: MARK2; parameters: method as in PMID 21984823; settings: cited from earlier work
[3] = Table S3, read-out: IC50, (µM), for MARK4 Inhibition
[4] = ATPase inhibition, 20 µM ATP, read-out: IC50 against MARK4

SMILES | IC50 (MCF-7 cells) | IC50 (HepG2 cells) | Kd (recombinant MARK4 [1]) | IC50 (recombinant MARK4 [2]; [3]) | MARK4 inhibition, comparison in words (recombinant MARK4 [2]; ATPase inhibition) | melting point | IC50 (recombinant MARK4 [2]; [4]) | IC50 (HEK293 cells) | IC50 (MARK2)
COc1ccc2c(c1)c(=O)c1ccccc1n2CC(=O)Nc1cccc(C(F)(F)F)c1 [Compound 30019] |  |  |  |  |  |  |  |  | < 10 µM
O=C(Cn1c2ccccc2c(=O)c2ccccc21)Oc1ccccc1F [Compound 30195] |  |  |  |  |  |  |  |  | < 10 µM
N#Cc1ccc(NC(=O)Cn2c3ccccc3c(=O)c3ccccc32)cc1 [Compound 30197] |  |  |  |  |  |  |  |  | < 10 µM
CCOC(=O)c1cnc(NC(=O)Cn2c3ccccc3c(=O)c3ccccc32)s1 [Compound 30199] |  |  |  |  |  |  |  |  | < 10 µM

More lines, main results first:

IC50 (MCF-7 cells) | IC50 (HepG2 cells) | Kd (recombinant MARK4 [1]) | IC50 (recombinant MARK4 [2]; [3]) | MARK4 inhibition, comparison in words (recombinant MARK4 [2]; ATPase inhibition) | melting point | IC50 (recombinant MARK4 [2]; [4]) | SMILES | IC50 (HEK293 cells) | IC50 (MARK2)
12.3 µM | 24.3 µM | 501 µM | > 20 µM |  |  |  | Cc1ccc2c(c1)c(=O)c1ccccc1n2CC(=O)N1CCOCC1 [Compound 7a, 2-Methyl-10-(2-morpholino-2-oxoethyl)acridin-9(10H)-one] | > 200 µM | 
11.9 µM | 19.4 µM | 501 µM | > 20 µM | much weaker inhibitor | 131 to 141 °C |  | Cc1ccc2c(c1)c(=O)c1ccccc1n2CC(=O)N(C)Cc1ccccc1 [Compound 7c, N-benzyl-N-methyl-2-(2-methyl-9-oxoacridin-10(9 H)-yl)acetamide] | > 200 µM | 
13.8 µM | 23.8 µM | 1580 µM | > 20 µM | less potent than 7b | 290 to 293 °C |  | Cc1ccc2c(c1)c(=O)c1ccccc1n2CC(=O)Nc1ccccc1 [Compound 7e, 2-(2-Methyl-9-oxoacridin-10(9H)-yl)-N-phenylacetamide] | > 200 µM | 
14.3 µM | 21.2 µM | 158 µM | > 20 µM |  | 282 to 286 °C | > 20 µM | COc1ccc(NC(=O)Cn2c3ccccc3c(=O)c3cc(C)ccc32)cc1 [Compound 7g, N-(4-methoxyphenyl)-2-(2-methyl-9-oxoacridin-10(9H)-yl)acetamide] | > 200 µM | 
14.1 µM | 25.1 µM | 1580 µM |  |  |  | > 20 µM | COC(=O)c1ccc(NC(=O)Cn2c3ccccc3c(=O)c3cc(C)ccc32)cc1 [Compound 7i, Methyl 4-(2-(2-methyl-9-oxoacridin-10(9H)-yl)acetamido)benzoate] | > 200 µM | 
16.3 µM | 24.4 µM | 501 µM |  |  | 306 to 309 °C | > 20 µM | CC(=O)c1ccc(NC(=O)Cn2c3ccccc3c(=O)c3cc(C)ccc32)cc1 [Compound 7j, N-(4-acetylphenyl)-2-(2-methyl-9-oxoacridin-10(9H)-yl)acetamide] | > 200 µM | 
